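Assay format: 96-well plates, 48-hour exposure. Abbreviation: GI50, concentration required for 50% inhibition of growth.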 Activity calls are given as the source filed them. No stated cut-off is given here; in the data, active = GI50 up to about 1.1 µM and inactive = higher. Some results are limits rather than exact numbers.

Consider twelve molecules from ChEMBL document CHEMBL1201862, “PubChem BioAssay data set” (2004).

What all share (assay): growth of human tumour cells (NCI), 48 h
Test [1] deals with 786-0.
Test [2] relates to HCC 2998.
The subject of test [3] is HCT-15.
Test [4] relates to HOP-62.
The test system of test [5] is HT-29.
The test system of test [6] is IGROV-1.
The test system of test [7] is LOX IMVI.
In test [8] the test system is M14.
Test [9] deals with OVCAR-3.
The subject of test [10] is OVCAR-4.
For test [11], the system named is PC-3.
The test system of test [12] is SF-539.
In test [13] the test system is SK-MEL-28.
In test [14] the test system is SNB-75.
Test [15] relates to SR.
The test system of test [16] is T47D.
Test [17] has as its system UO-31.
For test [18], the system named is OVCAR-8.
Test [19] has as its system SK-MEL-2.

Regarding `N/C(CCSCCSCC/C(N)=N\O)=N\O`, the GI50 was > 100 µM (inactive) in [1]; > 100 µM (inactive) in test [2]; over 100 µM in [3]; > 100 µM (inactive) in test [4]; > 100 µM (inactive) in test [5]; > 100 µM (inactive) in test [6]. Also, the GI50 in test [7], in test [8], in [9], in test [10], in [11] and in [12] was > 100 µM (inactive) throughout. Also, the GI50 in [13], in test [14], in [15], in [16] and in [17] was > 100 µM (inactive) each time.
In the case of `O=C(CCCN1CCC2(CC1)CC(=O)N(N1CCCCCC1)C2=O)c1ccccc1`, the GI50 in [1] is > 100 µM (inactive); in [3], over 100 µM; in test [4], > 100 µM (inactive); in test [5], 67.1 µM (inactive); in test [6] it was > 100 µM (inactive); in test [7], > 100 µM (inactive). In addition, the GI50 in test [8], in [9], in test [10], in test [18], in test [11] and in test [12] was > 100 µM (inactive) each time. Further, the GI50 is > 100 µM (inactive) in test [13]; > 100 µM (inactive) in test [19]; > 100 µM (inactive) in test [14]; 14.2 µM (inactive) in [15]; > 100 µM (inactive) in test [16]; > 100 µM (inactive) in [17].
As for `CC(=O)OC1COC(Nn2c(=O)[nH]c3ccccc3c2=O)C(OC(C)=O)C1OC(C)=O` (stereo unspecified), the GI50 in test [1] is > 100 µM (inactive); in test [3] it was over 100 µM; in test [4] it was > 100 µM (inactive); in test [5] it was > 100 µM (inactive); in test [6] it was > 100 µM (inactive); in test [7], > 100 µM (inactive). Moreover, the GI50 in test [8] is > 100 µM (inactive); in [9], > 100 µM (inactive); in test [18], 86.9 µM (inactive); in test [11], > 100 µM (inactive); in test [12], > 100 µM (inactive); in test [13], > 100 µM (inactive). Also, the GI50 in [19] is > 100 µM (inactive); in test [14], 30.3 µM (inactive); in test [15], > 100 µM (inactive); in test [16], 47.1 µM (inactive); in [17], 81.1 µM (inactive).
On to `NC(=O)c1ccc(/N=N/O)nc1`, for which the GI50 in test [1] is > 100 µM (inactive); in test [2] it was > 100 µM (inactive); in [3], over 100 µM; in test [4], > 100 µM (inactive); in [5], > 100 µM (inactive); in [6], > 100 µM (inactive). For the same molecule, the GI50 in test [8], in test [9], in test [10], in [18], in test [11] and in [12] was > 100 µM (inactive) in each case. The GI50 in test [13], in test [14], in test [15], in [16] and in [17] was > 100 µM (inactive) in each case.
Consider `COC(=O)C#Cc1cccc(OC)c1OC`, for which the GI50 in test [1] was 43.8 µM (inactive); in test [2], 24.4 µM (inactive); in [3], 32.4 µM; in test [4], 98.2 µM (inactive); in test [5], 27 µM (inactive); in test [7] it was 33.7 µM (inactive). Also, the GI50 in test [8] is 49.7 µM (inactive); in test [9] it was 41.1 µM (inactive); in test [10], 20.4 µM (inactive); in [18] it was 40.3 µM (inactive); in test [11], 36.7 µM (inactive); in test [12] it was 21.6 µM (inactive). Besides, the GI50 in test [13] was 38.9 µM (inactive); in test [15], 18.7 µM (inactive); in [16], > 100 µM (inactive); in [17] it was 20.4 µM (inactive).
As for `Oc1cc(CN2COc3ccccc32)c(O)cc1CNC1CCCCC1`, the GI50 in [1] is 18.5 µM (inactive); in test [3], 20.1 µM; in test [4], 71.1 µM (inactive); in [5] it was 22 µM (inactive); in [6] it was 32.8 µM (inactive); in test [7] it was 16.6 µM (inactive). For the same molecule, the GI50 in test [8] is 31.3 µM (inactive); in test [9] it was 26.2 µM (inactive); in [10], 20.3 µM (inactive); in test [18], 24 µM (inactive); in [11], 19.3 µM (inactive); in [12] it was 19.5 µM (inactive). In addition, the GI50 in test [13] was 21.8 µM (inactive); in test [19] it was 23.3 µM (inactive); in [14], 18.8 µM (inactive); in [15], 20.1 µM (inactive); in test [16], 26.4 µM (inactive); in [17] it was 35.4 µM (inactive).
For `O=C(N(O)c1ccccc1Cl)C(O)(c1ccccc1)c1ccccc1`, the GI50 was 31.3 µM (inactive) in test [1]; 35.4 µM (inactive) in test [2]; 39.3 µM in test [3]; > 100 µM (inactive) in test [4]; 85.7 µM (inactive) in test [5]; 78.9 µM (inactive) in test [6]. Also, the GI50 in test [7] was 49.3 µM (inactive); in test [8], 54.1 µM (inactive); in test [9], 43.5 µM (inactive); in test [10], > 100 µM (inactive); in test [18], 76.2 µM (inactive); in test [11] it was 91.6 µM (inactive). Further, the GI50 in test [12] was > 100 µM (inactive); in test [13] it was 93.3 µM (inactive); in test [19], > 100 µM (inactive); in test [15], 18.1 µM (inactive); in test [16] it was 47 µM (inactive); in test [17] it was 20.6 µM (inactive).
In the case of `CC1C/C(=C\c2ccc(OC(=O)C(C)(C)C)cc2)C(=O)/C(=C/c2ccc(OC(=O)C(C)(C)C)cc2)C1` (stereo unspecified), the GI50 in [1] is 54.3 µM (inactive); in test [2], > 100 µM (inactive); in test [3] it was over 100 µM; in test [4], 41.2 µM (inactive); in test [5], > 100 µM (inactive); in [6], 7.64 µM (inactive). The GI50 in test [7] was 35.6 µM (inactive); in test [8] it was > 100 µM (inactive); in test [9] it was 68.4 µM (inactive); in [10], 31.4 µM (inactive); in test [18], 36 µM (inactive); in test [11], 72.4 µM (inactive). The GI50 in [12] is 39.5 µM (inactive); in [13] it was > 100 µM (inactive); in [19], 61 µM (inactive); in test [15] it was 22.3 µM (inactive); in test [16], 59.3 µM (inactive).
As to `O=C1Nc2ccc(Br)cc2/C1=N/NC(=S)Nc1ccc([N+](=O)[O-])cc1`, the GI50 in [1] was 8.91 µM (inactive); in test [3], 2.69 µM; in test [4] it was 11.4 µM (inactive); in test [5] it was 7.71 µM (inactive); in test [6], 5.08 µM (inactive); in test [7], 8.81 µM (inactive). Also, the GI50 was 6.65 µM (inactive) in [9]; 6.11 µM (inactive) in test [10]; 6.37 µM (inactive) in test [18]; 7.13 µM (inactive) in test [11]; 20.2 µM (inactive) in test [12]; 11.1 µM (inactive) in test [13]. Also, the GI50 was 13.7 µM (inactive) in test [19], 16 µM (inactive) in [14], 5.05 µM (inactive) in [15] and 7.45 µM (inactive) in [16].
For the molecule `CCN(CC)C(=O)N1CN(c2ccccc2)C2(CCN(CCCSc3ccc(F)cc3)CC2)C1=O`, the GI50 in test [1] is 12.8 µM (inactive); in [3], 11 µM; in [5], 2.85 µM (inactive); in test [7] it was 2.84 µM (inactive); in test [8], 3.56 µM (inactive); in [9] it was 5.13 µM (inactive). Besides, the GI50 in test [10] was 6.75 µM (inactive); in [18], 15.1 µM (inactive); in test [11] it was 6.56 µM (inactive); in test [12], 8.34 µM (inactive); in [13], 18.4 µM (inactive); in test [19], 7.16 µM (inactive). The GI50 in test [14] is 20.6 µM (inactive); in test [15], 3.8 µM (inactive); in test [16], 4.01 µM (inactive); in test [17], 7.19 µM (inactive).
For the molecule `COc1ccc(-c2oc3c(CC(=O)O)cccc3c(=O)c2OC)cc1`, the GI50 in test [1], in test [2], in [4], in test [5], in test [6] and in [8] was > 100 µM (inactive) in each case. The GI50 in [9], in [18], in test [11], in test [12], in test [19] and in [15] was > 100 µM (inactive) each time. For the same molecule, the GI50 in test [16] is > 100 µM (inactive); in test [17], 0.0809 µM (active).
Take `CC(=S)NC1C(Oc2ccc3c(C)cc(=O)oc3c2)OC(CO)C(O)C1O` (stereo unspecified): the GI50 in [1] was > 10 µM (inactive); in test [3], over 100 µM; in test [4] it was > 100 µM (inactive); in test [5] it was > 100 µM (inactive); in test [6], > 100 µM (inactive); in test [7], > 100 µM (inactive). Further, the GI50 in test [9], in test [10], in [18], in test [11], in test [12] and in test [13] was > 100 µM (inactive) each time. Also, the GI50 in test [19], in test [14], in test [15], in [16] and in test [17] was > 100 µM (inactive) throughout.
